Measured values taken from ChEMBL document CHEMBL4354815, “Fibrinolysis Inhibitors: Potential Drugs for the Treatment and Prevention of Bleeding” (J Med Chem, 2020).
Blank lines part the entries; values can stand above or below the compound they belong to. Where a SMILES comes first, the peptide text is derived from it. [ ]: non-standard residue; d: D form. Met(O2) = CS(=O)(=O)CC[C@H](N)C(=O)O

Experiments:
[1] = target: Vitamin K-dependent protein C (Homo sapiens, UniProt P04070); test: Inhibition of human activated protein […] C using H-D-Lys(Cbo)-Pro-Arg-pNA as substrate
[2] = Inhibition of human urinary kallikrein using H-D-Val-Leu-Arg-pNA as substrate
[3] = target: T1, Complement C1s subcomponent (Homo sapiens, UniProt P09871); test: Inhibition of human Complement C1s subcomponent using Val-Ser-Arg-pNA as substrate
T1 sequence (P09871 whole entry): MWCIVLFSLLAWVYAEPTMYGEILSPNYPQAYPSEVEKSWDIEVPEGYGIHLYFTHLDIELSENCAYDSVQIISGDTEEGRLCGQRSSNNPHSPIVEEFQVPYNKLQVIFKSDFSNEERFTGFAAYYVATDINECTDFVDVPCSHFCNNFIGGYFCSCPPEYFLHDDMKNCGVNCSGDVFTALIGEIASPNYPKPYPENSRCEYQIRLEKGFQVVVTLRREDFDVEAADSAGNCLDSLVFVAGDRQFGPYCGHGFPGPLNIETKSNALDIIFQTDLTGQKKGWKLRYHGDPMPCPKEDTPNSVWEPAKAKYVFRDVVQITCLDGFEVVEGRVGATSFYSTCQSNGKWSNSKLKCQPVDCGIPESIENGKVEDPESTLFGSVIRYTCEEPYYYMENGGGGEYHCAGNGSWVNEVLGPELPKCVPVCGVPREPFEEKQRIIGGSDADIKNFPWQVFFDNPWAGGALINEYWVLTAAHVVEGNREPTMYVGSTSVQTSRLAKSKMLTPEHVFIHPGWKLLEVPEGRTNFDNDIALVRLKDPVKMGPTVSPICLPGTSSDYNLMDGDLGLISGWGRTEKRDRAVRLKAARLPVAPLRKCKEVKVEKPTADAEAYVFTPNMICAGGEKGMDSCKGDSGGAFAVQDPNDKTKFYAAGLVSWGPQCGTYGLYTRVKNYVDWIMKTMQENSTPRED

[4] = target: T2, Complement C1r subcomponent (Homo sapiens, UniProt P00736); test: Inhibition of human Complement C1r subcomponent using Val-Ser-Arg-pNA as substrate
T2 sequence (P00736 whole entry): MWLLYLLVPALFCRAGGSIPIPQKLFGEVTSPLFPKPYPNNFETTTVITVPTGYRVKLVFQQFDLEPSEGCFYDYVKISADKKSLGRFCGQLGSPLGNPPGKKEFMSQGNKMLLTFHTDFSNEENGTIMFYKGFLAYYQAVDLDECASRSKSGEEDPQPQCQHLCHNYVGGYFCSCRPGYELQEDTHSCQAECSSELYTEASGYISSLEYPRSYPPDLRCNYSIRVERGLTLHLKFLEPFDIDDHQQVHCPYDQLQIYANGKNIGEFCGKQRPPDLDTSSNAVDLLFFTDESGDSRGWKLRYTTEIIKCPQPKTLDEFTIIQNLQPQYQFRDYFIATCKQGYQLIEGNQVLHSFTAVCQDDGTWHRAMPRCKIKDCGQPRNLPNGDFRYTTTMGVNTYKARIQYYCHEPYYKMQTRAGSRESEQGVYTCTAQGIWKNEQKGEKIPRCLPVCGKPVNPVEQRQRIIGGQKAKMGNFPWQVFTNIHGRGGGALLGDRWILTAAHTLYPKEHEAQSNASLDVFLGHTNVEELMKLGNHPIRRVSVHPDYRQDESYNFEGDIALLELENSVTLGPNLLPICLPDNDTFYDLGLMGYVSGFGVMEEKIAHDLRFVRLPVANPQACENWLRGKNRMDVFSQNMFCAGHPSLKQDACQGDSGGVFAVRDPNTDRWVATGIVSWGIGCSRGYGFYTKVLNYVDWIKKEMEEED

[5] = target: T3, Prothrombin (Homo sapiens, UniProt P00734); test: Inhibition of human factor 2a using Mes-d-Cha-Gly-Arg-pNA as substrate
[6] = target: T4, Coagulation factor X (Homo sapiens, UniProt P00742); test: Inhibition of human factor 10a using MeOCO-d-Cha-Gly-Arg-pNA as substrate
[7] = target: Coagulation factor XI (Homo sapiens, UniProt P03951); test: Inhibition of human factor 11a using H-D-Lys(Cbo)-Pro-Arg-pNA as substrate
[8] = target: T5, Coagulation factor XII (Homo sapiens, UniProt P00748); test: Inhibition of human factor 12a using CHA-Gly-Arg- pNA as substrate
T5 sequence (P00748 whole entry): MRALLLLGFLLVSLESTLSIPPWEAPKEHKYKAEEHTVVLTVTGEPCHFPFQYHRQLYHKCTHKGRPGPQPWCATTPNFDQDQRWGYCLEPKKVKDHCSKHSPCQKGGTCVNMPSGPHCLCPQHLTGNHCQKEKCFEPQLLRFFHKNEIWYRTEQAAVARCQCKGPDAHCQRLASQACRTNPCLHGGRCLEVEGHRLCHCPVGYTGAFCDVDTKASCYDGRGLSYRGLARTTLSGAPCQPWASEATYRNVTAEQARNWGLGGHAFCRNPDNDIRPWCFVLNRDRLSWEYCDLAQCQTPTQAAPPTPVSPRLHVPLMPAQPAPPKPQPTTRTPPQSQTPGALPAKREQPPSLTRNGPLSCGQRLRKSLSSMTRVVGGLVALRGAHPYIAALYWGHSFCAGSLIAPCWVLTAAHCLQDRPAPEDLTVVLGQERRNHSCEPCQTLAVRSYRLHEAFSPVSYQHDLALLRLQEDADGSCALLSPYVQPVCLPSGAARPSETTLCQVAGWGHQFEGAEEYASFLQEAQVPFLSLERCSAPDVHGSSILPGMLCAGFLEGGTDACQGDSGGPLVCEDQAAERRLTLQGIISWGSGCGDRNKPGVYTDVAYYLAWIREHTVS

[9] = target: Tissue-type plasminogen activator (Homo sapiens, UniProt P00750); test: Inhibition of human tissue-type plasminogen activator using Mes-d-Cha- Gly-Arg-pNA as substrate
[10] = Initial serum concentration in human at 100 mg/kg, iv; assay type: ADME, organism-based
[11] = Drug level in human serum at 100 mg/kg, iv measured after 3 to 4 hrs; assay type: ADME, organism-based; conditions: in vivo
[12] = Plasma concentration in human at 100 mg/kg, po measured within 2 to 3 hrs; assay type: ADME, organism-based; conditions: in vivo
[13] = Half life in human; assay type: ADME
[14] = Half life in dog, iv; assay type: ADME, Canis lupus familiaris; conditions: in vivo
[15] = Half life in rat, iv; assay type: ADME; conditions: in vivo
[16] = tested on: Blood; test: Anti-fibrinolytic activity in human whole blood assessed as reduction in clot lysis incubated for 5 mins in presence of tissue-type plasminogen activator by rotational thromboelastometry; assay type: functional, tissue-based
[17] = Plasma concentration in human at 0.219 mg/kg/h by liquid chromatography-tandem mass spectrometry; assay type: ADME, organism-based; conditions: in vivo
[18] = target: T6, Plasminogen (Homo sapiens, UniProt P00747); test: Competitive inhibition of human plasmin assessed as reduction in hydrolytic activity using S-2251 as substrate by spectrophotometric method
[19] = target: T6, Plasminogen; test: Inhibition of plasmin (unknown origin) assessed as reduction in amidolytic activity using S-2251 as the substrate after 4 mins
[20] = target: T6, Plasminogen; test: Inhibition of human plasmin assessed as reduction in fibrinolysis
[21] = target: T4, Coagulation factor X; test: Inhibition of human factor 10a (unknown origin) assessed as reduction in hydrolysis activity preincubated for 10 mins followed by spectrozyme FXa
[22] = target: T3, Prothrombin; test: Inhibition of thrombin (unknown origin) assessed as reduction in hydrolysis activity preincubated for 10 mins followed by spectrozyme TH
[23] = target: T6, Plasminogen; test: Inhibition of human plasmin assessed as reduction in proteolysis activity in presence of fibrinogen after 90 mins by SDS-PAGE analysis

T6 sequence (P00747 97-580 limits assumed): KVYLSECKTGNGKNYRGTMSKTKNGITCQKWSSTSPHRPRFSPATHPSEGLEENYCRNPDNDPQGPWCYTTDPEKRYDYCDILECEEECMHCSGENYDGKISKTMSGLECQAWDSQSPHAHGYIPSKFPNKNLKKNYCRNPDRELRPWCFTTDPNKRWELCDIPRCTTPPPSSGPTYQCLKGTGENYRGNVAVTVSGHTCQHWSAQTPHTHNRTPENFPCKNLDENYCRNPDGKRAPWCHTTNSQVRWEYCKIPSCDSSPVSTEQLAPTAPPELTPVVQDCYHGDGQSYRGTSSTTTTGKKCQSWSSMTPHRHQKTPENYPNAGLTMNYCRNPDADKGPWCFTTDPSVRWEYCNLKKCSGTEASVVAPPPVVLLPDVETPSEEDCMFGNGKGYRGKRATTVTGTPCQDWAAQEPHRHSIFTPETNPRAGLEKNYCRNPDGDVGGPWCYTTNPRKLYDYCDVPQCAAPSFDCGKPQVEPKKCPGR
T6 sequence (P00747 581-810 limits assumed): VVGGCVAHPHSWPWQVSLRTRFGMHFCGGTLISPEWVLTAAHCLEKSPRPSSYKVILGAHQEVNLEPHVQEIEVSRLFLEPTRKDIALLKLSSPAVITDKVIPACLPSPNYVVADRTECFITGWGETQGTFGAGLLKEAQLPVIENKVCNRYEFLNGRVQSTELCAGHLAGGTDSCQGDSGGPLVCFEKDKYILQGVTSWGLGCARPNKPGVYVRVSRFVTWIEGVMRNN
T4 sequence (P00742 41-179 limits assumed): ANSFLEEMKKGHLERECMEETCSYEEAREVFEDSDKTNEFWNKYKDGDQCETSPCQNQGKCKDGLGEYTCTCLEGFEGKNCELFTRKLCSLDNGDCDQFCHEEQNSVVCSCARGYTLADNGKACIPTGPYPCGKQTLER
T4 sequence (P00742 235-488 limits assumed): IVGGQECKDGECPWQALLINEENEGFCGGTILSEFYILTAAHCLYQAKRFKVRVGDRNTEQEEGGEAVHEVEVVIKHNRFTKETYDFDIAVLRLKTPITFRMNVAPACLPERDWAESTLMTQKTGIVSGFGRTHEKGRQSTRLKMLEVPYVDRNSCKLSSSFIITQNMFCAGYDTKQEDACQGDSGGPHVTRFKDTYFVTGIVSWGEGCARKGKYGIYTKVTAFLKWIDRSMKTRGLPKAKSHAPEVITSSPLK
Vitamin K-dependent protein C, sequence (P04070 43-197 limits assumed): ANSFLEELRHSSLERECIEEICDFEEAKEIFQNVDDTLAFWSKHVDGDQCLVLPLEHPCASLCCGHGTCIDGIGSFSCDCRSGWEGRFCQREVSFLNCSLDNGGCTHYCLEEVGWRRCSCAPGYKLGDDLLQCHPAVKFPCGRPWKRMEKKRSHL
Vitamin K-dependent protein C, sequence (P04070 212-461 limits assumed): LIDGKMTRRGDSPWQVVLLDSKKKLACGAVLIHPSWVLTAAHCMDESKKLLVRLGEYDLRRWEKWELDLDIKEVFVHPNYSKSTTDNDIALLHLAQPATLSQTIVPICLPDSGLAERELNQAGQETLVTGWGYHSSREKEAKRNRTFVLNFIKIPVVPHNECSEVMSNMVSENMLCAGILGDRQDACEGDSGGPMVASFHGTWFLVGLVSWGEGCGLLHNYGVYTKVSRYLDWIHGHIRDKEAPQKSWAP
Coagulation factor XI, sequence (P03951 19-387 limits assumed): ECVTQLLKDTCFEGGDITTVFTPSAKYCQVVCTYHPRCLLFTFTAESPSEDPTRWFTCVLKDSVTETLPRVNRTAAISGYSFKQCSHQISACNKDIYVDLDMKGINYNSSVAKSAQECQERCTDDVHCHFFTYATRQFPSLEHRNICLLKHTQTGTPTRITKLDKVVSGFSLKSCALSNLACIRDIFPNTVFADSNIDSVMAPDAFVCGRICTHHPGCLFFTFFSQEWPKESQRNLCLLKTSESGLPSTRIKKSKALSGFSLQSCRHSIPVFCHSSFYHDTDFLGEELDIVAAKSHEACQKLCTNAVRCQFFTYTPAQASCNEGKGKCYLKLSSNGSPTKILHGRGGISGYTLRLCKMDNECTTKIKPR
Coagulation factor XI, sequence (P03951 388-625 limits assumed): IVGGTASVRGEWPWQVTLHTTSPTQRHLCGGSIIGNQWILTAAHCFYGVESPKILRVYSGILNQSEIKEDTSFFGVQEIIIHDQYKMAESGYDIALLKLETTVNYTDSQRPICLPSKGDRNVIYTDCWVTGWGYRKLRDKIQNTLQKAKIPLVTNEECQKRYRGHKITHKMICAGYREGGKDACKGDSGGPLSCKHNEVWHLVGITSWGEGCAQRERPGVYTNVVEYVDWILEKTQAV
Tissue-type plasminogen activator, sequence (P00750 whole entry): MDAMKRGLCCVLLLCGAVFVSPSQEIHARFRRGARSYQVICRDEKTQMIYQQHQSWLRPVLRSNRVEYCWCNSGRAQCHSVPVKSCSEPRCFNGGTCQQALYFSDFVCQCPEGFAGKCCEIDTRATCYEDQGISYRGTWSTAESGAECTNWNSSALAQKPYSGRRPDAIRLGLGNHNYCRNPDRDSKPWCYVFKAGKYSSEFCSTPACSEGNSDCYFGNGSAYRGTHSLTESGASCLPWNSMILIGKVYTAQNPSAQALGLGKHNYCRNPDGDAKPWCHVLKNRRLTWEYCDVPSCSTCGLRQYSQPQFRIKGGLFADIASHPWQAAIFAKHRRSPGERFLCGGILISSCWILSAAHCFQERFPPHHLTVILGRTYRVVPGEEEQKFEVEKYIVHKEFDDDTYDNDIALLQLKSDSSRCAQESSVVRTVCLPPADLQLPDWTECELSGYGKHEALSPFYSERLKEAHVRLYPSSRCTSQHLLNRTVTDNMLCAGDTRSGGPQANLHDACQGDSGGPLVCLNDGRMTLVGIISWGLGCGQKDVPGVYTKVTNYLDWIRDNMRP

Ki [1]: > 130 nM
Ki [2]: > 130 nM
Ki [3]: > 130 nM
Ki [4]: > 130 nM
Ki [5]: > 130 nM
Ki [6]: > 130 nM
Ki [7]: > 130 nM
Ki [8]: > 130 nM
Ki [9]: > 130 nM
SMILES: N=C(N)c1ccc(CNC(=O)[C@H](CCC2CCNCC2)NC(=O)[C@@H](CCCc2ccccc2)NS(=O)(=O)Cc2ccccc2)cc1

C0 [10]: 1500 µg/mL
Drug uptake [11]: 0.035 mg/mL
Cp [12]: 300 µg/mL
half-life [13]: 80 min
SMILES: NCCCCCC(=O)O [AMINOCAPROIC ACID]

half-life [14]: 20 min
half-life [15]: 20 min
IC50 [16]: 150 nM
concentration [17]: 900 nM
SMILES: N=C(N)c1ccc(CNC(=O)[C@H](Cc2cccc(CN)c2)NC(=O)[C@@H](CCCc2ccccc2)NS(=O)(=O)Cc2cccc(C(=O)O)c2)cc1

Ki [18]: 1900 nM
SMILES: CCOC(=O)c1ccc(OC(=O)CCCCCNC(=N)N)cc1 [GABEXATE]

IC50 [19]: 15000 nM
IC50 [20]: 6100 nM
SMILES: NCCCC[C@H](NC(=O)[C@H]1CC[C@H](CN)CC1)C(=O)Nc1ccc(C(=O)c2ccccc2)cc1

IC50 [21]: > 250000 nM
IC50 [22]: > 500000 nM
SMILES: O=c1c(OS(=O)(=O)O)c(-c2ccc(OS(=O)(=O)O)c(OS(=O)(=O)O)c2)oc2cc(OS(=O)(=O)O)cc(OCc3cn(CCCCCCCCn4c(-c5ccc(OS(=O)(=O)O)cc5)nc5ccccc5c4=O)nn3)c12

Ki [23]: 3.3 nM
SMILES: CC(=O)N[C@@H](CCCCN)C(=O)N[C@@H](CCS(C)(=O)=O)C(=O)N[C@@H](Cc1ccc(O)cc1)C(=O)N[C@H](C=O)CCCNC(=N)N (Ac-K[Met(O2)]YR-aldehyde)
